Results as given in patent US20150313217A1, “CONTROL AGENT FOR PLANT PEST AND/OR PLANT DISEASE” (RIKEN, priority 2012, published 2015).

Assay: Aggregation and precipitation of polyglycerin fatty acid ester on storage with oxoacid or organic solvent (Example 17)
Assay type: physicochemical
Set-up: key: 1: equivalent aggregation and precipitation to those of the reference were observed; 2: the aggregation and precipitation were approximately ¾ of those of the reference; 3: the aggregation and precipitation were approximately ½ of those of the reference; 4: the aggregation and precipitation were approximately ¼ of those of the reference; 5: no aggregate and precipitate were observed
Conditions: cool dark place, two months, visual
Procedure: A polyglycerin fatty acid ester and phosphoric acid were weighed using an electronic balance and put into a cylindrical plastic container (diameter of […]×height of 77 mm, volume 25 ml) in such a manner that the mixing ratio was 90:10 (mass ratio) (10 mass % of phosphoric acid (approximately 11.1 parts by mass of phosphoric acid per 100 parts by mass of the polyglycerin fatty acid) was added) or 99.9:0.1 (mass ratio) (0.1 mass % of phosphoric acid (approximately 0.1 parts by mass of phosphoric acid per 100 parts by mass of the polyglycerin fatty acid) was added). The total amount was adjusted to 20 ml. Then, the preparation was made uniform by sufficient stirring and mixing. The resultant was left standing in a cool dark place. Two months later, the degree of aggregation and precipitation of the polyglycerin fatty acid ester was visually determined based on the following determination criteria. […] Further, as a reference, a test was conducted by the same method as above using only a polyglycerin fatty acid ester to which no oxoacid or organic solvent was added. Index 1: equivalent aggregation and precipitation to those of the reference were observed. Index 2: the aggregation and precipitation were approximately ¾ of those of the reference.

[1] = adding ratio 0.1 % to polyglycerin fatty acid ester
[2] = adding ratio 10.0 % to polyglycerin fatty acid ester

| Result (index): degree of aggregation and precipitation of the polyglycerin fatty acid ester [1] | Result (index): degree of aggregation and precipitation of the polyglycerin fatty acid ester [2] | SMILES |
| --- | --- | --- |
| 4 | 5 | CC(=O)O [acetic acid] |
| 4 | 5 | CC(O)C(=O)O (stereo not shown) [lactic acid] |

Further lines, the molecule ahead of its results:

| SMILES | Result (index): degree of aggregation and precipitation of the polyglycerin fatty acid ester [1] | Result (index): degree of aggregation and precipitation of the polyglycerin fatty acid ester [2] |
| --- | --- | --- |
| CCO [ethyl alcohol] | 4 | 4 |
| CCCCCC [normal hexane] | 3 | 4 |
| O=P(O)(O)O [phosphoric acid] | 4 | 5 |
